# Test results reported in article PMC8505367 (Clinical Pharmacokinetics, 2021).
# Columns and labels:
# [1] = type: in vivo, human; details: subjects with T2D, N = 55, oral, recommended dosing conditions; geometric mean of typical PK parameter values for each subject
# plasma protein = details: cited from earlier work
# [2] = reducing gastric pH with omeprazole; cited from earlier work
# [3] = type: in vivo, human; details: oral, post-dose fasting time 120 min, model-derived
smiles,measurement,setting,value
CC[C@H](C)[C@H](NC(=O)[C@H](Cc1ccccc1)NC(=O)[C@H](CCC(=O)O)NC(=O)[C@H](CCCCNC(=O)COCCOCCNC(=O)COCCOCCNC(=O)CC[C@H](NC(=O)CCCCCCCCCCCCCCCCC(=O)O)C(=O)O)NC(=O)[C@H](C)NC(=O)[C@H](C)NC(=O)[C@H](CCC(N)=O)NC(=O)CNC(=O)[C@H](CCC(=O)O)NC(=O)[C@H](CC(C)C)NC(=O)[C@H](Cc1ccc(O)cc1)NC(=O)[C@H](CO)NC(=O)[C@H](CO)NC(=O)[C@@H](NC(=O)[C@H](CC(=O)O)NC(=O)[C@H](CO)NC(=O)[C@@H](NC(=O)[C@H](Cc1ccccc1)NC(=O)[C@@H](NC(=O)CNC(=O)[C@H](CCC(=O)O)NC(=O)C(C)(C)NC(=O)[C@@H](N)Cc1cnc[nH]1)[C@@H](C)O)[C@@H](C)O)C(C)C)C(=O)N[C@@H](C)C(=O)N[C@@H](Cc1c[nH]c2ccccc12)C(=O)N[C@@H](CC(C)C)C(=O)N[C@H](C(=O)N[C@@H](CCCNC(=N)N)C(=O)NCC(=O)N[C@@H](CCCNC(=N)N)C(=O)NCC(=O)O)C(C)C [semaglutide],ka (absorption rate),[1],2.09 h⁻¹
same,Plasma protein binding,plasma protein,> 99%
same,Change in semaglutide exposure,[2],small but not clinically relevant increase
same,"Bioavailability, plateau with longer post-dose fasting time",[3],around 1.4%
